Biological target: T1, Human M4 receptors (Homo sapiens, UniProt P08173)
T1 construct: expressed in transfected cells; host or cells: HEK293 cells with Promega GloSensor cAMP technology, stably expressing hM4
T1 sequence (P08173 1-479): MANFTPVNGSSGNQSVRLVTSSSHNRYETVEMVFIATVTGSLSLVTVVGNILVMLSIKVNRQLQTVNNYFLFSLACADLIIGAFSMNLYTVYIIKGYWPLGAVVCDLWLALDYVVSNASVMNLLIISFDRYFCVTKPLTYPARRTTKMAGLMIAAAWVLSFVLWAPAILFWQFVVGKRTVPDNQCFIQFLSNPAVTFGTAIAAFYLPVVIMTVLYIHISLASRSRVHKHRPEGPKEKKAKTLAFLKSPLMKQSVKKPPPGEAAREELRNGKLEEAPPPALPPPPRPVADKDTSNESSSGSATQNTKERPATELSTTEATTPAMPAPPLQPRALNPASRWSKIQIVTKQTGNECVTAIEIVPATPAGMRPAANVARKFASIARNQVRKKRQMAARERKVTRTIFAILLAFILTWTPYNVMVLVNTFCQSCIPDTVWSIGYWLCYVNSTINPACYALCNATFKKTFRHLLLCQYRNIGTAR
Test: M4 PAM cAMP assay (GloSensor)
Type: cell-based
Details: for Emax: HEK293, read-out: M4 glosensor EC50 Mean Asymptote Maximum (%); for EC50 / M4 glosensor EC50 Mean Asymptote Maximum (%): HEK293 GloSensor cells expressing hM4, with EC20 acetylcholine and isoproterenol, geometric mean of 2-4 determinations unless otherwise indicated; for M4 glosensor EC50 Mean Asymptote Maximum (%): Emax = maximum asymptote of fitted dose response curve
Procedure: The M4 PAM binding affinity for the compounds of the present invention was determined utilizing the following biological assay(s):
The M4 cAMP assay was designed to determine the potency and efficacy of muscarinic positive allosteric modulators (PAMs). Human M4 receptors were stably expressed in Human embryonic kidney (HEK293) cells expressed with the Promega GloSensor™ cAMP technology.
HEK293 GloSensor cells expressing hM4 cells were cultured in growth media containing DMEM with 10% FBS, 1% Penicillin/Streptomycin, 500 μg/mL G418, 200 μg/mL Hygomycin B, and 1% Glutamax. […] Plates were incubated at 37 degrees C. and 5% CO2 for use after 24 hours.
Compound Preparation for Agonist Screen:
Each compound was tested at 10 concentrations in duplicate per experiment. Compound plates are spotted with 0.2 μL/well agonist at 400 times the final assay concentration. Positive and negative controls for the compound alone agonist response was 10 μM acetylcholine (Sigma #A2661) and DMSO, respectively. EC20 of acetylcholine was also used to define PAM activities.
Promega GloSensor™ reagent (Promega #E1291) had previously been aliquotted. […] Stock solution was mixed. Culture media in cell plates was discarded, then replaced with 40 μL/well pre-warmed equilibration media, then incubated in the dark at room temperature for 2 hours. During the incubation, stimulation media containing agonist and EC20 acetylcholine was prepared. […] Compounds are now 5 times the final assay concentration. The plate was mixed using a plate agitator. At the end of the 2 hour GloSensor™ incubation, add 10 μL of the CO2-independent media containing agonist, EC20 acetylcholine and isoproterenol to the cell plate. Cell plate was then incubated for 10 minutes at room temperature, and then read using an EnVision plate reader (Perkin Elmer).
Data was exported from the EnVision plate reader. The percent effect for each well was determined using the mean values for the positive and negative controls on each plate for each read, specifically 100*(compound−negative control)/(positive control−negative control). Dose response curves were fitted to the compound percent effect data using a 4-parameter logistic fit model. Data was reported as EC50 and Emax, with the Emax as the maximum asymptote of the fitted dose response curve.

| Emax | EC50 | M4 glosensor EC50 Mean Asymptote Maximum (%) | SMILES |
| --- | --- | --- | --- |
| 116% | 0.0216 µM | – | COc1nc2c(c(C)c1C)CN(C(=O)CC1CN(c3cccnc3)C1)C2 [Example 28, 1-(2-methoxy-3,4-dimethyl-5,7-dihydro-6H-pyrrolo[3,4-b]pyridin-6-yl)-2-[1-(pyridin-3-yl)azetidin-3-yl]ethanone] |
| 86% | 0.018 µM | – | Cc1cc(C(F)F)nc2c1CN(C(=O)CC1CN(c3cncnc3)C1)C2 [Example 34, 1-[2-(difluoromethyl)-4-methyl-5,7-dihydro-6H-pyrrolo[3,4-b]pyridin-6-yl]-2-[1-(pyrimidin-5-yl)azetidin-3-yl]ethanone] |
| 99.8% | 0.0174 µM | – | COCc1cc(C)c2c(n1)CN(C(=O)CC1CN(c3ccnc(C(F)(F)F)c3)C1)C2 [Example 7, 1-[2-(methoxymethyl)-4-methyl-5,7-dihydro-6H-pyrrolo[3,4-b]pyridin-6-yl]-2-{1-[2-(trifluoromethyl)pyridin-4-yl]azetidin-3-yl}ethanone] |
| 94.4% | 0.0168 µM | – | COCc1cc(C)c2c(n1)CN(C(=O)CC1CN(c3cccnc3)C1)C2 [Example 27, 1-[2-(methoxymethyl)-4-methyl-5,7-dihydro-6H-pyrrolo[3,4-b]pyridin-6-yl]-2-[1-(pyridin-3-yl)azetidin-3-yl]ethanone] |
| 86.6% | 0.0239 µM | – | COc1cc(C)c2c(n1)CN(C(=O)CC1CN(c3cccnc3)C1)C2 [Example 21, 1-(2-methoxy-4-methyl-5,7-dihydro-6H-pyrrolo[3,4-b]pyridin-6-yl)-2-[1-(pyridin-3-yl)azetidin-3-yl]ethanone] |
| 109% | 0.00482 µM | – | COc1nc2c(c(C)c1Cl)CN(C(=O)CC1CN(c3cccnc3)C1)C2 [Example 22, 1-(3-chloro-2-methoxy-4-methyl-5,7-dihydro-6H-pyrrolo[3,4-b]pyridin-6-yl)-2-[1-(pyridin-3-yl)azetidin-3-yl]ethanone] |
| 78.7% | 0.0257 µM | – | Cc1cc(C(F)F)nc2c1CN(C(=O)CC1CN(c3ccnc(OC(F)F)c3)C1)C2 [Example 25, 2-{1-[2-(difluoromethoxy)pyridin-4-yl]azetidin-3-yl}-1-[2-(difluoromethyl)-4-methyl-5,7-dihydro-6H-pyrrolo[3,4-b]pyridin-6-yl]ethanone] |
| 95.3% | 0.0905 µM | – | Cc1cc(C)c2c(n1)CN(C(=O)CC1CN(c3ccc(C(O)C4CC4)cc3)C1)C2 (stereo not drawn) [Example 73, 2-(1-{4-[cyclopropyl(hydroxy)methyl]phenyl}azetidin-3-yl)-1-(2,4-dimethyl-5,7-dihydro-6H-pyrrolo[3,4-b]pyridin-6-yl)ethanone] |
| 89% | 0.0377 µM | – | Cc1ccc([C@H]2C[C@@H]2CC(=O)N2Cc3nc(C(F)F)cc(C)c3C2)cn1 [Example 18, 1-[2-(difluoromethyl)-4-methyl-5,7-dihydro-6H-pyrrolo[3,4-b]pyridin-6-yl]-2-[(1R,2S)-2-(6-methylpyridin-3-yl)cyclopropyl]ethanone] |
| 119% | 0.0071 µM | – | Cc1nc2c(c(C)c1Cl)CN(C(=O)CC1CN(c3ccnc(C(F)F)c3)C1)C2 [Example 12, 1-(3-Chloro-2,4-dimethyl-5,7-dihydro-6H-pyrrolo[3,4-b]pyridin-6-yl)-2-{1-[2-(difluoromethyl)pyridin-4-yl]azetidin-3-yl}ethanone] |
| 41.5% | 1.36 µM | – | COc1ccc(C#N)cc1N1CC(CC(=O)N2Cc3nc(C)cc(C)c3C2)C1 [Example 69, 3-{3-[2-(2,4-dimethyl-5,7-dihydro-6H-pyrrolo[3,4-b]pyridin-6-yl)-2-oxoethyl]azetidin-1-yl}-4-methoxybenzonitrile] |
| 99.2% | 0.0143 µM | – | COCc1cc(C)c2c(n1)CN(C(=O)CC1CN(c3ccnc(C(F)F)c3)C1)C2 [Example 50, 2-{1-[2-(difluoromethyl)pyridin-4-yl]azetidin-3-yl}-1-[2-(methoxymethyl)-4-methyl-5,7-dihydro-6H-pyrrolo[3,4-b]pyridin-6-yl]ethanone] |

Second part, the molecule before the results:

| SMILES | Emax | EC50 | M4 glosensor EC50 Mean Asymptote Maximum (%) |
| --- | --- | --- | --- |
| Cc1nc2c(c(C)c1Cl)CN(C(=O)OC1CN(c3ncns3)C1)C2 [Example 67, 1-(1,2,4-thiadiazol-5-yl)azetidin-3-yl 3-chloro-2,4-dimethyl-5,7-dihydro-6H-pyrrolo[3,4-b]pyridine-6-carboxylate] | 98.6% | 0.0185 µM | – |
| Cc1cc(C)c2c(n1)CN(C(=O)CC1Cc3ccccc3C1)C2 [Example 56, 2-(2,3-dihydro-1H-inden-2-yl)-1-(2,4-dimethyl-5,7-dihydro-6H-pyrrolo[3,4-b]pyridin-6-yl)ethanone] | 71.8% | 0.209 µM | – |
| Cc1nc2c(c(C)c1C)CN(C(=O)C[C@@H]1C[C@H]1c1cccnc1)C2 (single isomer, unassigned) [Example 37, 2-[trans-2-(pyridin-3-yl)cyclopropyl]-1-(2,3,4-trimethyl-5,7-dihydro-6H-pyrrolo[3,4-b]pyridin-6-yl)ethanone] | – | 1.79 µM | 85.8% |
| Cc1cc(C)c2c(n1)CN(C(=O)CC1CN(c3cccnc3)C1)C2C (single isomer, unassigned) [Example 14, 2-[1-(Pyridin-3-yl)azetidin-3-yl]-1-(2,4,5-trimethyl-5,7-dihydro-6H-pyrrolo[3,4-b]pyridin-6-yl)ethanone] | – | 9.08 µM | 62.5% |
| Cc1c(C(F)F)nc2c(c1C)CN(C(=O)OC1CN(c3ncns3)C1)C2 [Example 63, 1-(1,2,4-thiadiazol-5-yl)azetidin-3-yl 2-(difluoromethyl)-3,4-dimethyl-5,7-dihydro-6H-pyrrolo[3,4-b]pyridine-6-carboxylate] | 51.8% | 0.0424 µM | – |
| Cc1ccc([C@H]2C[C@@H]2CC(=O)N2Cc3nc(C)cc(C)c3C2)cn1 [Example 17, 1-(2,4-Dimethyl-5,7-dihydro-6H-pyrrolo[3,4-b]pyridin-6-yl)-2-[(1R,2S)-2-(6-methylpyridin-3-yl)cyclopropyl]ethanone] | 107% | 0.0719 µM | – |
| Cc1cc(C)c2c(n1)CN(C(=O)CC1CN(c3cccnc3)C1)C2C (single isomer, unassigned) [Example 15, 2-[1-(Pyridin-3-yl)azetidin-3-yl]-1-(2,4,5-trimethyl-5,7-dihydro-6H-pyrrolo[3,4-b]pyridin-6-yl)ethanone] | – | 0.028 µM | 106% |
| Cc1cc(C)c2c(n1)CN(C(=O)CC1CN(c3ccc(C(=O)N(C)C)cc3)C1)C2 [Example 70, 4-{3-[2-(2,4-dimethyl-5,7-dihydro-6H-pyrrolo[3,4-b]pyridin-6-yl)-2-oxoethyl]azetidin-1-yl}-N,N-dimethylbenzamide] | 95% | 0.184 µM | – |
| COCc1nc2c(c(C)c1C)CN(C(=O)CC1CN(c3cncnc3)C1)C2 [Example 40, 1-[2-(methoxymethyl)-3,4-dimethyl-5,7-dihydro-6H-pyrrolo[3,4-b]pyridin-6-yl]-2-[1-(pyrimidin-5-yl)azetidin-3-yl]ethanone] | 97.9% | 0.0236 µM | – |
| COCc1nc2c(c(C)c1Cl)CN(C(=O)CC1CN(c3ccc(F)nc3)C1)C2 [Example 49, 1-[3-chloro-2-(methoxymethyl)-4-methyl-5,7-dihydro-6H-pyrrolo[3,4-b]pyridin-6-yl]-2-[1-(6-fluoropyridin-3-yl)azetidin-3-yl]ethanone] | 101% | 0.0112 µM | – |
| Cc1cc(C)c2c(n1)CN(C(=O)OC1CN(c3nncs3)C1)C2 [Example 62, 1-(1,3,4-thiadiazol-2-yl)azetidin-3-yl 2,4-dimethyl-5,7-dihydro-6H-pyrrolo[3,4-b]pyridine-6-carboxylate] | 47% | 0.0957 µM | – |
| COc1nc2c(c(C)c1Cl)CN(C(=O)CC1CN(c3cncnc3)C1)C2 [Example 26, 1-(3-chloro-2-methoxy-4-methyl-5,7-dihydro-6H-pyrrolo[3,4-b]pyridin-6-yl)-2-[1-(pyrimidin-5-yl)azetidin-3-yl]ethanone] | 117% | 0.0139 µM | – |

Source: US11905284B2, “5,7-dihydro-pyrrolo-pyridine derivatives” (PFIZER INC., priority 2016, dated 2024)
